The test system of assay [1] is NOTCH1. In words: NOTCH1 protein level in brain, capillary-based immunoassay. The assay is classed as in vivo, mouse. Conditions: aged 3xTg-AD female mice; TP-064 30 mg/kg, 7 days, IP or AAV knockdown. On the procedure:
NOTCH1 protein level in cortex, FIG. 13A, and hippocampus, FIG. 13B, was decreased in aged 3xTg-AD female mice v. male counterparts. Treatment with specific PRMT4 specific inhibitor (TP-064, 30 mg/kg, 7 days, IP) or AAV knockdown of PRMT4 enhanced NOTCH1 protein level in cortex, […], and hippocampus, […], in aged 3xTg-AD female mice. Relative NOTCH1 protein (˜110 kDa) level was measured by capillary-based immunoassay and normalized to total protein. * p<0.05 v. control male mice evaluated by unpaired t-test in FIGS. 13A and 13B. * p<0.05 compared to C57, #p<0.05 compared to 3xTg-AD+TP-064, $p<0.05 compared to 3xTg-AD+AAV, evaluated by one-way ANOVA with Tukey's post-hoc analyses in FIGS. 13C and 13D.
FIGS. 16A-16G show NOTCH1 inhibition (via crenigacestat) decreased ZO-1 and occluding and AAV knockdown of PRMT4 enhanced ZO-1 and occludin. […] C57 female mice. FIGS. 16B and 16C show crenigacestat (10 mg/kg, IP, 7 days) reduced NOTCH1 (110 kDa) protein level in the cortex and hippocampus of aged C57 female mice. AAV knockdown of PRMT4 increased NOTCH1 protein level. FIGS. 16D-16G show ZO-1 (220 kDa), and occludin (60 kDa) tight junctional proteins were decreased in the cortex and hippocampus in presence of NOTCH1 inhibitor in C57. PRMT4-AAV increased the expression of ZO-1 and occludin in aged 3xTg-AD female mice. Protein level was measured by capillary-based immunoassay and normalized to total protein. * p<0.05 compared to C57, #p<0.05 compared to 3xTg-AD, $p<0.05 compared to 3xTg-AD+AAV as evaluated by one-way ANOVA with Tukey's post-hoc analyses.
Capillary-phoresis immunoassay via ProteinSimple®: Quantification of all protein targets was achieved using Simple Western analysis in a Jess™ apparatus per the manufacturer's protocol (ProteinSimple, Bio-techne, Minneapolis, MN). […] Following homogenization and centrifugation (10,000×g, 5 min, 4° C.), protein concentration was determined in tissue protein supernatant samples using DC Protein Assay (Cat. No. 5000112, Bio-Rad Laboratories, Hercules, California) according to manufacturer instructions. […] Antibody diluent (ProteinSimple, Bio-techne, Minneapolis, MN) was used for all antibody dilutions as follows: PRMT4 (1:50, RRID: AB_2068436), PRMT6 (1:100, Cell Signaling Technology cat. 14641), eNOS (1:200, RRID: AB_10850618), nNOS (1:100, RRID: AB_2152488), iNOS (1:100, RRID: AB_10000625), DDAH2 (1:50, RRID: AB_2640442) Antibodies were detected using HRP-conjugated secondary anti-rabbit, and -mouse. Relative protein levels were calculated by measuring the area under the peak of a chemiluminescent chromatogram and normalized to total capillary chemiluminescence for a given sample. […]

For assay [2], the system named is 3-nitrotyrosine. In words: 3-Nitrotyrosine ELISA of brain lysate. The format is in vivo, mouse. The settings on record: combined cortex and hippocampus lysate. On the procedure: OxiSelect™ 3-Nitrotyrosine ELISA: Protein was extracted from dissected tissue in an extraction buffer consisting of T-PER® Tissue Protein Extraction Reagent (Cat. No. 78510, Thermo Fischer Scientific, Waltham, MA) and Halt™ Protease Inhibitor Cocktail (Cat. No. 87785, Thermo Fischer Scientific, Waltham, MA). Following homogenization and centrifugation (10,000×g, 5 min, 4° C.), protein concentration was determined in the supernatant using DC Protein Assay (Cat. No. 5000112, Bio-Rad Laboratories, Hercules, California) according to manufacturer instructions. Levels of 3-Nitrotyrosine were determined using OxiSelect™ 3-Nitrotyrosine ELISA (Cat. No. STA-305, Cell Biolabs Inc., San Diego, CA). Briefly, 50 μL of protein lysate was added to a pre-coated 96-well plate and incubated at room temperature (20° C.) for 10 min on an orbital shaker. 50 μL of anti-nitrotyrosine antibody (1:1000, Cell Biolabs Inc., San Diego, CA) was added to each well and plate was incubated for 1 hr at 20° C. Wells were washed 3 times using assay wash buffer, and 100 μL of secondary antibody-enzyme conjugate (1:1000, Cell Biolabs Inc., San Diego, CA) was added to each well. Plate was then incubated for 1 hr at 20° C. on an orbital shaker. […] The standard curve was provided by the manufacturer, and all sample concentrations were determined from the standard curve values. Changes in absorbance were measured at 450 nm. […]
A general note: In an ELISA, binding on a coated surface is turned into a signal by an enzyme label.

For the compound `CNCCN1CCC(c2cc(CN(C)C(=O)c3cccc(Oc4ccccc4)c3)ccn2)CC1` [TP-064, N-Methyl-N-((2-(1-(2-(methylamino)ethyl)piperidin-4-yl)pyridin-4-yl)methyl)-3-phenoxybenzamide], in assay [1], the “NOTCH1 protein level in cortex” value is “enhanced” and the “NOTCH1 protein level in hippocampus” value was “enhanced”. For the same compound, the 3-nitrotyrosine level in assay [2] (3xTg-AD mice) worked out at 110 ± 27.2 µM. Moreover, the 3-nitrotyrosine level in assay [2] (C57BL/6J mice) stood at 86.9 ± 7.71 µM.

The record behind these values is patent US20240238268A1, “TREATMENTS AND METHODS FOR TREATING ALZHEIMER'S DISEASE” (Board of Supervisors of Louisiana State University and …, priority 2021, published 2024).
